Where only a bound is given, the exact number is not on record here.

Drawing on the supplement of paper PMC5762512, this text covers IC50 cell viability for four compounds.

Assay in all cases: IC50 cell viability (Alamar Blue, 96 h)
(The colour change of resazurin is a common sign of viable cells or microbes.)

One assay concerns 10326. Here is the method:
(§1)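 Cells in log-phase growth were seeded in 96-well plates and treated with drug for 96 h at 37°C using 8-point serial dilutions from 0.0025 to 10 µM. Viability was read by Alamar Blue fluorescence after 6 h and normalised to positive and vehicle (DMSO) controls. IC50 values were fitted in ActivityBase; the value given is the mean of two independent experiments.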

A further assay relates to 11060. Here is the method:
as §1

The subject of a further assay is 14169. As for the experimental part:
as §1

In another assay the test system is 8645. As for the experimental part: as §1
The next assay deals with A549. As for the experimental part:
as §1

In the next assay the test system is CAKI-1. Here is the method:
as §1

In the next assay the test system is HCC2429. Here is the method: as §1
Another assay has as its system HS-27. Here is the method:
as §1

Another assay relates to P896-CL. As for the experimental part: as §1
The next assay relates to PER-403. As for the experimental part:
as §1

A further assay concerns PER-535. As for the experimental part:
as §1

The test system of the next assay is PER-536. As for the experimental part: as §1
Another assay concerns PER-624. As for the experimental part:
as §1

The next assay has as its system PER-704. Here is the method:
as §1

For another assay, the system named is PER-712. Here is the method: as §1
A further assay concerns PER-891. As for the experimental part: as §1
Another assay concerns RPMI2650. As for the experimental part:
as §1

Another assay has as its system TC797. As for the experimental part:
as §1

In the next assay the test system is TY82. As for the experimental part:
as §1

The next assay relates to WI-38. As for the experimental part: as §1

As to `Cc1cc(/C=C/c2ccc3cc(N(C)C)ccc3[n+]2C)c(C)n1-c1ccccc1` [Pyrvinium pamoate], the IC50 cell viability with 10326 is 230 nM; in the assay with 11060 it was 167 nM; with 14169, 249 nM; in the assay with 8645, 268 nM; in the assay with A549 it was 95 nM; in the assay with CAKI-1 it was 906 nM. For the same compound, the IC50 cell viability in the assay on HCC2429 is 173 nM; in the assay on HS-27, 263 nM; in the assay on P896-CL, 304 nM; in the assay on PER-403, 199 nM; with PER-535, 260 nM; with PER-536, 261 nM. Besides, the IC50 cell viability was determined as 188 nM with PER-624; 198 nM in the assay with PER-704; 277 nM in the assay on PER-712; 396 nM in the assay on PER-891; 421 nM with RPMI2650; 165 nM in the assay with TC797. The IC50 cell viability with TY82 came to 206 nM; with WI-38, 256 nM.
With `Cc1sc2c(c1C)C(c1ccc(Cl)cc1)=N[C@@H](CC(=O)Nc1ccc(O)cc1)c1nnc(C)n1-2` [OTX-015], the IC50 cell viability came to 6.97 nM in the assay with 10326; 194 nM in the assay on 11060; 35.1 nM with 14169; 73.6 nM with 8645; 784 nM with A549; 9360 nM with CAKI-1. For the same compound, the IC50 cell viability with HCC2429 is 55.8 nM; in the assay on HS-27, 2450 nM; in the assay on P896-CL, 921 nM; in the assay on PER-403, 42.6 nM; with PER-535, 622 nM; in the assay with PER-536, 4260 nM. The IC50 cell viability in the assay on PER-624 was 4270 nM; in the assay with PER-704, 440 nM; with PER-712 it was 939 nM; with PER-891 it was 6720 nM; with RPMI2650 it was over 10000 nM; with TC797, over 10000 nM. The IC50 cell viability in the assay with TY82 turned out to be 137 nM; in the assay with WI-38, 543 nM.
For the compound `COc1cccc2c1C(=O)c1c(O)c3c(c(O)c1C2=O)C[C@@](O)(C(C)=O)C[C@@H]3O[C@H]1C[C@H](N)[C@H](O)[C@H](C)O1` [Daunorubicin], the IC50 cell viability amounted to 42.1 nM in the assay with 10326; 29.5 nM with 11060; 9.69 nM in the assay with 14169; 12.2 nM in the assay with 8645; 13.1 nM with A549; 1030 nM in the assay with CAKI-1. In addition, the IC50 cell viability came to 51.1 nM with HCC2429; 90.1 nM in the assay on HS-27; 201 nM in the assay with P896-CL; 14.9 nM in the assay with PER-403; 218 nM in the assay on PER-535; 339 nM in the assay on PER-536. Also, the IC50 cell viability with PER-624 amounted to 22 nM; in the assay with PER-704 it was 110 nM; in the assay with PER-712, 384 nM; in the assay with PER-891, 475 nM; with RPMI2650 it was 285 nM; with TC797, 153 nM. The IC50 cell viability in the assay on TY82 amounted to 227 nM; in the assay on WI-38, 87.8 nM.
Take `CCCOc1ccn2c(C(C)=O)cc(-c3ccccc3S(C)(=O)=O)c2c1` [GSK-2801]: the IC50 cell viability with 10326, with 11060, with 14169, with 8645, with A549 and in the assay on CAKI-1 was over 10000 nM each time. Further, the IC50 cell viability in the assay on HCC2429, with HS-27, in the assay with P896-CL, in the assay with PER-403, in the assay on PER-535 and in the assay with PER-536 was over 10000 nM in each case. Also, the IC50 cell viability with PER-624, with PER-704, with PER-712, in the assay with PER-891, with RPMI2650 and with TC797 was over 10000 nM in each case. In addition, the IC50 cell viability in the assay on TY82 and with WI-38 was over 10000 nM throughout.
